Assay: Mass spectrometry biodistribution (plasma, CSF, spinal cord, brain)
Format: in vivo, mouse
Procedure: K2 tubes at 5 min, 30 min, 1 hour, 5 hours, 12 hours, 24 hours, and 48 hours and centrifuged (app 4 ℃, 3200 g, 10 min) for collection of plasma. Plasma was transferred to 96 well plates and quick-frozen over dry ice and kept at -60 ℃ until LC-MS/MS analysis. For LC-MS/MS analysis plasma with 0.25% Triton X100 in 50% MeOH/water (6 µL) was quenched with 160 µL of IS1 (internal standard in MeOH (Labetalol & tolbutamide & Verapamil & dexamethasone & glyburide & Celecoxib 100 ng/mL for each)) and the mixture was vortexed for 10 min at 800 rpm and centrifuged for 15 min at 3220 × g at 4 ℃. […] Plasma half-lives were determined from three points in the elimination phase. In a separate experiment, biodistribution was assessed (plasma, CSF, spinal cord, whole brain) at two hours after single dose of 10 µmol/kg or one hour after last injection in the repeated administration paradigm (10 µmol/kg followed by four s.c. administrations of 2 µmol/kg with one hour between). […] Plasma, CSF, and tissue samples (kept at 4 ℃) were processed and analysed as described above.
Concentration 10 µmol/kg: Wild type mice were habituated to the experimental room for a minimum of 60 min before initiation of the experiment. […] A video camera placed above the open field recorded the animals’ behaviour and Ethovision XT 13 (Noldus) was used to track the distance travelled by the […]

## CCCCCCCCCCCCCC(=O)N(CCOCCOCCC(=O)N[C@@H](Cc1c[nH]cn1)C(=O)N[C@@H](Cc1c[nH]c2ccccc12)C(=O)N[C@@H](CC(C)C)C(=O)N[C@@H](CCCCN)C(=O)N[C@H](C(=O)O)C(C)C)CCOCCOCCC(=O)N[C@@H](Cc1c[nH]cn1)C(=O)N[C@@H](Cc1c[nH]c2ccccc12)C(=O)N[C@@H](CC(C)C)C(=O)N[C@@H](CCCCN)C(=O)N[C@H](C(=O)O)C(C)C [mPD5, myristoyl-NPEG4-(HWLKV)2]
C57BL/6NRj, mouse, plasma, sc, 10 umol/kg, 1 hour after s.c. 10 μmol/kg, LLOQ = 2 ng/mL, n = 3
  level at 1 h: 3.28 ± 0.615 µg/mL
After s.c. injection in mice
  detection in CSF, spinal cord, and brain tissue by mass spectrometry: did not detect

Reference: paper PMC11530130, “Peripherally restricted PICK1 inhibitor mPD5 ameliorates pain behaviors in murine inflammatory and neuropathic pain models” (JCI Insight, 2024)
